From patent publication US7560458B2, “Triazolopyrimidine derivatives as glycogen synthase kinase 3 inhibitors” (Janssen Pharmaceutica, N.V., priority 2003, dated 2009)

What was measured:
GSK3β = GSK3β (Homo sapiens, UniProt P49841); assay: GSK3beta assay (SPA, biotinylated phosphorylated CREB peptide, ATP-P33); type: biochemical; conditions: −log IC50 (M); given as ranges (>8; 7-8; <7); read-out: pIC50 (GSK3beta) (converted)
Protocol: (§1) GSK3beta assays were performed at room temperature in a 100 μl reaction volume of 25 mM Tris (ph 7.4) containing 10 mM MgCl2.6H2O 1 mM DTT, 0.1 mg/ml BSA, 5% glyceol and containing 5.7 ng/μl GSK3β, 5 μM biotinylated phosphorylated CREB peptide, 1 μM APT, 0.85 μCi/ml ATP-P^33 and a suitable amount of a test compound of formula (I). After one hour, the reaction was terminated by adding 70 μl of Stop mix (0.1 mM APT, 5 mg/ml streptavidin coated PVT SPA bead pH 11.0). The beads to which the phosphorylated CREB peptide is attached were allowed to settle overnight and the radioactivity of the beads was counted in a microtiterplate scintillation counter and compared with the results obtained in a control experiment (without the presence of a test compound) in order to determine the percentage of GSK3β inhibition. The IC50 value, i.e. the concentration (M) of the test compound at which 50% of GSK3β is inhibited, was calculated from the dose response curve obtained by performing the above-described GSKK3β assay in the presence of different amounts of the test compound.

GSK3alpha = GSK3alpha (Homo sapiens, UniProt P49840); assay: GSK3alpha assay (same as the GSK3beta assay, GSK3alpha 0.25 ng/μl); type: biochemical; conditions: −log IC50 (M); given as ranges (>8; 7-8; <7); read-out: pIC50 (GSK3alpha) (converted)
Protocol: as §1
The GSK3alpha assay was performed in the same way as described above for the GSK3beta assay except for the concentration of GSK3alpha which is 0.25 ng/μl.

GSK3alpha, sequence (P49840 whole entry, species assumed): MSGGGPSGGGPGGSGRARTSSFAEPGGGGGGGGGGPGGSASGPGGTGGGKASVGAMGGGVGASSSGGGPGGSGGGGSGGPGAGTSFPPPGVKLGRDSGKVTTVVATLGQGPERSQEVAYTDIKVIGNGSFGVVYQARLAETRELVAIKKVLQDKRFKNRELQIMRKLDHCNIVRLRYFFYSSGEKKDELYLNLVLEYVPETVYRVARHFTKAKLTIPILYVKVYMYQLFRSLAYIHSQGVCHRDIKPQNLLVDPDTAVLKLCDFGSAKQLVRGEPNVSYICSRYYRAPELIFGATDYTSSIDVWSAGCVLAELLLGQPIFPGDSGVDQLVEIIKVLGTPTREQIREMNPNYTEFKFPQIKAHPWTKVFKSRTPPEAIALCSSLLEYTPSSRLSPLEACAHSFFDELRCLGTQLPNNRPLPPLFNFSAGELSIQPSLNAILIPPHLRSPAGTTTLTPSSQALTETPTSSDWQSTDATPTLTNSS
GSK3β, sequence (P49841 whole entry, species assumed): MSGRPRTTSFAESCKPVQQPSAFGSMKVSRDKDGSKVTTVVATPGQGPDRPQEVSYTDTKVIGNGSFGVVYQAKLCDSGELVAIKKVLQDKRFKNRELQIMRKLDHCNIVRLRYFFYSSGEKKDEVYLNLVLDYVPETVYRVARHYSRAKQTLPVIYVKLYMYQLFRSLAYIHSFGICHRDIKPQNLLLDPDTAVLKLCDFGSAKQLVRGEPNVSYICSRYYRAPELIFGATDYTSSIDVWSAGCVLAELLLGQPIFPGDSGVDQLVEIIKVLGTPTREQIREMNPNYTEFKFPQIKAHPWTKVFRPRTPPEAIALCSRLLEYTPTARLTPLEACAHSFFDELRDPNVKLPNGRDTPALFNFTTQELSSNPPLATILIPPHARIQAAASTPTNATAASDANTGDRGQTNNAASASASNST

Row | IC50 (GSK3β) [M] | IC50 (GSK3alpha) [M] | Structure (SMILES)
1 | < 1e-08 | 1e-08 to 1e-07 | Cn1ccnc1-c1cccc(-n2nnc3cnc(Nc4cccc(C#N)c4)nc32)c1 [Compound 4]
2 | < 1e-08 | < 1e-08 | CC(=O)Nc1cccc(Nc2ncc3nnn(-c4cccc(F)c4)c3n2)c1 [Compound 11]
3 | < 1e-08 | 1e-08 to 1e-07 | Nc1cccc(Nc2ncc3nnn(-c4cccc(F)c4)c3n2)c1 [Compound 12]
4 | 1e-08 to 1e-07 |  | COC(=O)c1cccc(Nc2ncc3nnn(-c4cccc(F)c4)c3n2)c1 [Compound 13]
5 | 1e-08 to 1e-07 | < 1e-08 | Cc1cccc(Nc2ncc3nnn(-c4cccc(F)c4)c3n2)c1 [Compound 14]
6 | 1e-08 | < 1e-08 | Oc1cccc(Nc2ncc3nnn(-c4cccc(F)c4)c3n2)c1 [Compound 15]
7 | 1e-08 to 1e-07 | < 1e-08 | Fc1cccc(Nc2ncc3nnn(-c4cccc(F)c4)c3n2)c1 [Compound 17]
8 | 1e-08 to 1e-07 | 1e-08 to 1e-07 | N#CSc1ccc(Nc2ncc3nnn(-c4cccc(F)c4)c3n2)cc1 [Compound 18]
9 | 1e-08 to 1e-07 | < 1e-08 | Fc1cccc(-n2nnc3cnc(Nc4ccc(OC(F)F)cc4)nc32)c1 [Compound 19]
10 | 1e-08 to 1e-07 | < 1e-08 | N#CCc1ccc(Nc2ncc3nnn(-c4cccc(F)c4)c3n2)cc1 [Compound 20]
11 | < 1e-08 | < 1e-08 | Cc1ccc(Nc2ncc3nnn(-c4cccc(F)c4)c3n2)cc1O [Compound 21]
12 | < 1e-08 | < 1e-08 | Fc1cccc(-n2nnc3cnc(Nc4cccc(OC(F)(F)F)c4)nc32)c1 [Compound 22]
13 | < 1e-08 | < 1e-08 | CCOc1cccc(Nc2ncc3nnn(-c4cccc(F)c4)c3n2)c1 [Compound 23]
14 | < 1e-08 | < 1e-08 | CNC(=O)c1cccc(Nc2ncc3nnn(-c4cccc(F)c4)c3n2)c1 [Compound 24]
15 | 1e-08 to 1e-07 | < 1e-08 | O=C(O)Cc1cccc(Nc2ncc3nnn(-c4cccc(F)c4)c3n2)c1 [Compound 25]
16 | 1e-08 to 1e-07 | < 1e-08 | O=C(O)c1cccc(Nc2ncc3nnn(-c4cccc(F)c4)c3n2)c1 [Compound 29]
17 | < 1e-08 | < 1e-08 | O=C(O)c1ccc(Nc2ncc3nnn(-c4cccc(F)c4)c3n2)cc1 [Compound 30]
18 | < 1e-08 | < 1e-08 | OCc1cccc(Nc2ncc3nnn(-c4cccc(F)c4)c3n2)c1 [Compound 31]
19 | < 1e-08 | < 1e-08 | Fc1cccc(-n2nnc3cnc(Nc4ccc(Cl)nc4)nc32)c1 [Compound 32]
20 | < 1e-08 | < 1e-08 | N#Cc1cccc(Nc2ncc3nnn(-c4cccc(Br)c4)c3n2)c1 [Compound 33]
21 | < 1e-08 | < 1e-08 | N#Cc1cccc(Nc2ncc3nnn(-c4ccccc4)c3n2)c1 [Compound 34]
22 | < 1e-08 | < 1e-08 | COc1cccc(-n2nnc3cnc(Nc4cccc(S(N)(=O)=O)c4)nc32)c1 [Compound 35]
23 | < 1e-08 | < 1e-08 | NS(=O)(=O)c1cccc(Nc2ncc3nnn(-c4cccc(CO)c4)c3n2)c1 [Compound 36]

Row | IC50 (GSK3β) [M] | IC50 (GSK3alpha) [M] | Structure (SMILES)
24 | < 1e-08 | < 1e-08 | NS(=O)(=O)c1ccc(Nc2ncc3nnn(-c4ccccc4)c3n2)cc1 [Compound 37]
25 | < 1e-08 | < 1e-08 | NC(=O)c1cccc(Nc2ncc3nnn(-c4ccccc4)c3n2)c1 [Compound 38]
26 | < 1e-08 | < 1e-08 | NC(=O)c1cccc(Nc2ncc3nnn(-c4cccc(C(N)=O)c4)c3n2)c1 [Compound 39]
27 | < 1e-08 | < 1e-08 | COc1cccc(-n2nnc3cnc(Nc4cccc(NC(C)=O)c4)nc32)c1 [Compound 42]
28 | < 1e-08 | < 1e-08 | COc1cccc(-n2nnc3cnc(Nc4cccc(C(C)O)c4)nc32)c1 (stereo not drawn) [Compound 43]
29 | < 1e-08 | < 1e-08 | CS(=O)(=O)c1cccc(Nc2ncc3nnn(-c4cccc(F)c4)c3n2)c1 [Compound 44]
30 | < 1e-08 | < 1e-08 | CS(=O)(=O)Nc1cccc(Nc2ncc3nnn(-c4cccc(F)c4)c3n2)c1 [Compound 45]
31 | < 1e-08 | < 1e-08 | COc1ccc(Nc2ncc3nnn(-c4ccccc4)c3n2)cn1 [Compound 47]
32 | < 1e-08 | < 1e-08 | COc1cccc(-n2nnc3cnc(Nc4cccc(C(C)=O)c4)nc32)c1 [Compound 51]
33 | < 1e-08 | < 1e-08 | COc1cccc(-n2nnc3cnc(Nc4cccc(NS(C)(=O)=O)c4)nc32)c1 [Compound 52]
34 | < 1e-08 | < 1e-08 | COc1cccc(-n2nnc3cnc(Nc4cccc(S(C)(=O)=O)c4)nc32)c1 [Compound 53]
35 | < 1e-08 | < 1e-08 | OCc1cccc(Nc2ncc3nnn(-c4cccc(CO)c4)c3n2)c1 [Compound 54]
36 | < 1e-08 | < 1e-08 | COCc1cccc(Nc2ncc3nnn(-c4cccc(F)c4)c3n2)c1 [Compound 56]
37 | < 1e-08 | < 1e-08 | CS(=O)(=O)Nc1cccc(Nc2ncc3nnn(-c4cccc(S(N)(=O)=O)c4)c3n2)c1 [Compound 58]
38 | < 1e-08 | < 1e-08 | CC(=O)Nc1cccc(Nc2ncc3nnn(-c4ccccc4)c3n2)c1 [Compound 59]
39 | < 1e-08 | < 1e-08 | CC(=O)c1cccc(Nc2ncc3nnn(-c4ccccc4)c3n2)c1 [Compound 60]
40 | < 1e-08 | < 1e-08 | COCc1cccc(Nc2ncc3nnn(-c4ccccc4)c3n2)c1 [Compound 61]
41 | < 1e-08 | < 1e-08 | CS(=O)(=O)Nc1cccc(Nc2ncc3nnn(-c4cccc(CO)c4)c3n2)c1 [Compound 62]
42 | < 1e-08 | < 1e-08 | CC(=O)Nc1cccc(Nc2ncc3nnn(-c4cccc(S(N)(=O)=O)c4)c3n2)c1 [Compound 63]
43 | < 1e-08 | < 1e-08 | CC(=O)c1cccc(Nc2ncc3nnn(-c4cccc(S(N)(=O)=O)c4)c3n2)c1 [Compound 64]
44 | 1e-08 to 1e-07 | 1e-08 to 1e-07 | COc1cccc(-n2nnc3cnc(Nc4cccc(C(=O)O)c4)nc32)c1 [Compound 66]
45 |  | 1e-08 to 1e-07 | O=C(O)c1cccc(Nc2ncc3nnn(-c4cccc(CO)c4)c3n2)c1 [Compound 68]
46 |  | 1e-08 to 1e-07 | O=C(O)c1cc(Nc2ncc3nnn(-c4cccc(F)c4)c3n2)ccc1Cl [Compound 70]

Row | IC50 (GSK3β) [M] | IC50 (GSK3alpha) [M] | Structure (SMILES)
47 | 1e-08 to 1e-07 | < 1e-08 | O=C(O)c1cc(Nc2ncc3nnn(-c4cccc(F)c4)c3n2)ccc1O [Compound 71]
48 | 1e-08 to 1e-07 | < 1e-08 | COc1cccc(-n2nnc3cnc(Nc4ccc(O)c(C(=O)O)c4)nc32)c1 [Compound 72]
49 | < 1e-08 | < 1e-08 | CC(=O)NCc1cccc(Nc2ncc3nnn(-c4cccc(F)c4)c3n2)c1 [Compound 73]
50 | 1e-08 | < 1e-08 | COC(=O)c1cccc(-n2nnc3cnc(Nc4cccc(CNC(C)=O)c4)nc32)c1 [Compound 74]
51 | 1e-08 to 1e-07 | < 1e-08 | CC(=O)NCc1cccc(Nc2ncc3nnn(-c4ccccc4)c3n2)c1 [Compound 75]
52 | < 1e-08 | < 1e-08 | O=S(=O)(CCO)c1cccc(Nc2ncc3nnn(-c4cccc(F)c4)c3n2)c1 [Compound 77]
53 | 1e-08 to 1e-07 | 1e-08 to 1e-07 | NCc1cccc(Nc2ncc3nnn(-c4ccccc4)c3n2)c1 [Compound 78]
54 | 1e-08 to 1e-07 | 1e-08 to 1e-07 | NCc1cccc(Nc2ncc3nnn(-c4cccc(F)c4)c3n2)c1 [Compound 79]
55 | < 1e-08 | < 1e-08 | COCc1cccc(-n2nnc3cnc(Nc4cccc(CNC(C)=O)c4)nc32)c1 [Compound 80]
56 | < 1e-08 | < 1e-08 | COCc1cccc(-n2nnc3cnc(Nc4cccc(NC(C)=O)c4)nc32)c1 [Compound 81]
57 | 1e-08 to 1e-07 | < 1e-08 | CCOc1ccc(Nc2ncc3nnn(-c4ccccc4)c3n2)cn1 [Compound 82]
58 | 1e-08 to 1e-07 | 1e-08 to 1e-07 | CC(=O)Nc1ccc(Nc2ncc3nnn(-c4ccccc4)c3n2)cn1 [Compound 83]
59 | < 1e-08 | < 1e-08 | COCc1cccc(-n2nnc3cnc(Nc4cccc(NS(C)(=O)=O)c4)nc32)c1 [Compound 84]
60 | 1e-08 to 1e-07 | < 1e-08 | COCc1cccc(-n2nnc3cnc(Nc4cccc(S(N)(=O)=O)c4)nc32)c1 [Compound 85]
61 | < 1e-08 | < 1e-08 | COCc1cccc(-n2nnc3cnc(Nc4cccc(C(C)=O)c4)nc32)c1 [Compound 86]
62 | 1e-08 to 1e-07 | < 1e-08 | CC(=O)Nc1ccc(Nc2ncc3nnn(-c4cccc(F)c4)c3n2)cn1 [Compound 87]
63 | < 1e-08 | < 1e-08 | O=S(=O)(NCCO)c1cccc(Nc2ncc3nnn(-c4cccc(F)c4)c3n2)c1 [Compound 88]
64 | < 1e-08 | < 1e-08 | NC(=O)CNC(=O)c1cccc(Nc2ncc3nnn(-c4cccc(F)c4)c3n2)c1 [Compound 89]
65 | < 1e-08 | < 1e-08 | COCCNC(=O)c1cccc(Nc2ncc3nnn(-c4cccc(F)c4)c3n2)c1 [Compound 90]
66 |  | 1e-08 to 1e-07 | O=C(O)Cc1cccc(-n2nnc3cnc(Nc4cccc(C(=O)NCCO)c4)nc32)c1 [Compound 177]
67 | < 1e-08 |  | COCCOCc1cccc(-n2nnc3cnc(Nc4cccc(C#N)c4)nc32)c1 [Compound 290]
